According to ChEMBL document CHEMBL5214890 (Eur J Med Chem, 2021):
pEC50: −log10 of the molar value. Active and inactive are the calls of the source. The rule behind the calls is not given here.

Key:
Mus musculus [1] = assay: Antidiabetic activity in male db/db mouse assessed as significant reduction in body weight gain at 30 nmol/kg, sc administered twice daily for 35 days; format: functional, organism-based; details: time 35.0 day
Mus musculus [2] = assay: Antidiabetic activity in male db/db mouse assessed as decrease in HbA1c level at 30 nmol/kg, sc administered twice daily for 35 days; format: functional, organism-based; details: time 35.0 day
Mus musculus [3] = assay: Antidiabetic activity in db/db mouse assessed as reduction in blood glucose at 10 nmol/kg, ip pretreated with compound and followed by glucose challenge and measured by oral glucose tolerance test; format: functional, organism-based
[4] = Toxicity in male db/db mouse assessed as change in serum lipase level at 30 nmol/kg, sc administered twice daily for 35 days; format: organism-based; details: in vivo, 840 h, time 35 day
Mus musculus [5] = assay: Antidiabetic activity in male DIO mouse assessed as reduction in acute food intake at 10 nmol/kg, sc measured at 0 to 2 hrs post administration; format: functional, organism-based
Mus musculus [6] = assay: Antidiabetic activity in male DIO mouse assessed as decrease in fasted blood glucose at 100 nmol/kg, sc administered twice daily for 7 days; format: functional, organism-based; details: time 7.0 day
[7] = Toxicity in male db/db mouse assessed as change in liver AST level at 100 nmol/kg, sc administered twice daily for 7 days; format: organism-based; details: in vivo, 168 h, time 7 day
Mus musculus [8] = assay: Antidiabetic activity in male db/db mouse assessed as improvement in glucose tolerance at 30 nmol/kg, sc administered twice daily for 35 days; format: functional, organism-based; details: time 35.0 day
Mus musculus [9] = assay: Antidiabetic activity in male db/db mouse assessed as reduction in blood glucose level at 30 nmol/kg, sc administered twice daily for 35 days; format: functional, organism-based; details: time 35.0 day
[10] = Toxicity in male db/db mouse assessed as change in liver ALT level at 100 nmol/kg, sc administered twice daily for 7 days; format: organism-based; details: in vivo, 168 h, time 7 day
[11] = MRT in male Sprague-Dawley rat at 25 nmol/kg, sc administered as single dose and measured after 24 hrs by LC-MS/MS analysis; format: ADME, organism-based; details: in vivo
[12] = Cmax in male Sprague-Dawley rat at 25 nmol/kg, iv administered as single dose and measured after 24 hrs by LC-MS/MS analysis; format: ADME, organism-based; set-up: dose 25 nmol/kg, time 24 hrs, route iv; details: in vivo
Mus musculus [13] = assay: Antidiabetic activity in male […] assessed as improvement in glucose tolerance at 30 nmol/kg, sc administered twice daily for 3 weeks; format: functional, organism-based
Mus musculus [14] = assay: Antidiabetic activity in male […] assessed as decrease in serum triglycerides level at 30 nmol/kg, sc administered twice daily for 3 weeks; format: functional, organism-based
Glucagon receptor = Glucagon receptor (Homo sapiens, UniProt P47871); assay: Agonist activity at human GCGR expressed in HEK293 cells incubated for 30 mins and assessed as increase in cAMP accumulation measured by HTRF assay; format: functional, cell-based
Glucagon receptor, sequence (P47871 whole entry): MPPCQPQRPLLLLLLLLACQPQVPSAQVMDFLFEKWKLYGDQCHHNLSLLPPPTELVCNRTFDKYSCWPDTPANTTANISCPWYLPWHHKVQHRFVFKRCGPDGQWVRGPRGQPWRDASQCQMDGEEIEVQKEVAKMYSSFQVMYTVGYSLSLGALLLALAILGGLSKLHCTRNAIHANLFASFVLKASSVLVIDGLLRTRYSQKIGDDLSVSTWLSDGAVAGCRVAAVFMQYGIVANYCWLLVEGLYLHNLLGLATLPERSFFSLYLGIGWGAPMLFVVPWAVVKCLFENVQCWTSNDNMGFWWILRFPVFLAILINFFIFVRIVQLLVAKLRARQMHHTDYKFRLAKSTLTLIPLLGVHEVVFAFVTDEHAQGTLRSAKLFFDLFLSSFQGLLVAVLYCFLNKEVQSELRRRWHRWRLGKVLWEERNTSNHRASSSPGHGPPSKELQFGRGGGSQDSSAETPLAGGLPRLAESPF

Mus musculus [15] = assay: Antidiabetic activity in male […] assessed as increase in plasma FGF21 level at 30 nmol/kg, sc administered twice daily for 3 weeks; format: functional, organism-based
Mus musculus [16] = assay: Antidiabetic activity in overnight fasted male C57BL/6J mouse assessed as reduction in acute food intake at 30 nmol/kg, sc administered at -0.5 hrs; format: functional, organism-based
[17] = Toxicity in overnight fasted male Sprague-Dawley rat assessed as induction of Pica behaviour by measuring kaolin intake at 10 to 300 nmol/kg, ip; details: in vivo, dose 10-300 nmol/kg
Rattus norvegicus [18] = assay: Antidiabetic activity in overnight fasted male Sprague-Dawley rat assessed as reduction in food intake at 100 nmol/kg, ip; format: functional; set-up: scale not given: the % may be the effect or the level left
Mus musculus [19] = assay: Antidiabetic activity in male […] assessed as reduction in food intake at 30 nmol/kg, sc administered twice daily for 3 weeks; format: functional, organism-based
Mus musculus [20] = assay: Antidiabetic activity in male db/db mouse assessed as decrease in fasted blood glucose at 100 nmol/kg, sc administered twice daily for 7 days; format: functional, organism-based; details: time 7.0 day
Mus musculus [21] = assay: Antidiabetic activity in male DIO mouse assessed as reduction in acute food intake at 10 nmol/kg, sc measured at 24 hrs post administration; format: functional, organism-based
[22] = Toxicity in male db/db mouse assessed as change in serum amylase level at 30 nmol/kg, sc administered twice daily for 35 days; format: organism-based; details: in vivo, 840 h, time 35 day
Mus musculus [23] = assay: Antidiabetic activity in male […] assessed as increase in plasma insulin level at 30 nmol/kg, sc administered twice daily for 3 weeks; format: functional, organism-based
[24] = Toxicity in male db/db mouse assessed as change in Cre level at 30 nmol/kg, sc administered twice daily for 35 days; format: organism-based; details: in vivo, 840 h, time 35 day
[25] = Toxicity in male DIO mouse assessed as change in serum amylase at 100 nmol/kg, sc administered twice daily for 7 days; format: organism-based; details: in vivo, 168 h, time 7 day
Mus musculus [26] = assay: Antidiabetic activity in male […] assessed as increase in serum HDL/LDL ratio at 30 nmol/kg, sc administered twice daily for 3 weeks; format: functional, organism-based
[27] = Toxicity in male db/db mouse assessed as change in liver AST level at 30 nmol/kg, sc administered twice daily for 35 days; format: organism-based; details: in vivo, 840 h, time 35 day
[28] = Toxicity in male db/db mouse assessed as change in Cre at 100 nmol/kg, sc administered twice daily for 7 days; format: organism-based; details: in vivo, 168 h, time 7 day
Mus musculus [29] = assay: Antidiabetic activity in male […] assessed as reduction in fat mas at 30 nmol/kg, sc administered twice daily for 3 weeks; format: functional, organism-based
[30] = Toxicity in male db/db mouse assessed as change in BUN level at 30 nmol/kg, sc administered twice daily for 35 days; format: organism-based; details: in vivo, 840 h, time 35 day
[31] = Cmax in male Sprague-Dawley rat at 25 nmol/kg, sc administered as single dose and measured after 24 hrs by LC-MS/MS analysis; format: ADME, organism-based; set-up: time 24 hrs, dose 25 nmol/kg, route sc; details: in vivo
[32] = Toxicity in male DIO mouse assessed as change in liver ALT level at 100 nmol/kg, sc administered twice daily for 7 days; format: organism-based; details: in vivo, 168 h, time 7 day
[33] = Half-life in male Sprague-Dawley rat at 25 nmol/kg, iv administered as single dose and measured after 24 hrs by LC-MS/MS analysis; format: ADME, organism-based; details: in vivo
[34] = target: Glucagon-like peptide 1 receptor (Homo sapiens, UniProt P43220); assay: Agonist activity at human GLP-1R expressed in HEK293 cells incubated for 30 mins and assessed as increase in cAMP accumulation measured by HTRF assay; format: functional, cell-based
Glucagon-like peptide 1 receptor, sequence (P43220 whole entry): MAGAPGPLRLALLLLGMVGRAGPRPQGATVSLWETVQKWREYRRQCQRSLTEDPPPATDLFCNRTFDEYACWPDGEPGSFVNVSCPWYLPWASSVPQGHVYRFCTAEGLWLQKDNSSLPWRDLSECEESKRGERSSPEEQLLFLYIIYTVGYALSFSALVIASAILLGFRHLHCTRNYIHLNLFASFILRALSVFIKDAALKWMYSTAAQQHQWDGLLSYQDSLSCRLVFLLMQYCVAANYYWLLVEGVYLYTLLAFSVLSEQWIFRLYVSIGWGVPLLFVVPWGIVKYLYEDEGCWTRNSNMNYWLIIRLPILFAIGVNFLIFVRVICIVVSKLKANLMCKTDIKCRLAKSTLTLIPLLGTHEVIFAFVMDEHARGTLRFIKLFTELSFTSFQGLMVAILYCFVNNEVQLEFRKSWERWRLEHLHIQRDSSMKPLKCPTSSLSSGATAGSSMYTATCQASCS

Mus musculus [35] = assay: Antidiabetic activity in male db/db mouse assessed as increase in islet number at 30 nmol/kg, sc administered twice daily for 35 days; format: functional, organism-based; details: time 35.0 day
Rattus norvegicus [36] = assay: Antidiabetic activity in overnight fasted male Sprague-Dawley rat assessed as reduction in food intake at 10 nmol/kg, ip; format: functional; set-up: scale not given: the % may be the effect or the level left
Mus musculus [37] = assay: Antidiabetic activity in db/db mouse assessed as reduction in plasma insulin level at 10 nmol/kg, ip pretreated with compound and followed by glucose challenge and measured by oral glucose tolerance test; format: functional, organism-based
Mus musculus [38] = assay: Antidiabetic activity in male […] assessed as decrease in serum LDL-C level at 30 nmol/kg, sc administered twice daily for 3 weeks; format: functional, organism-based
[39] = Toxicity in male db/db mouse assessed as change in serum amylase at 100 nmol/kg, sc administered twice daily for 7 days; format: organism-based; details: in vivo, 168 h, time 7 day
[40] = Toxicity in male db/db mouse assessed as change in liver ALT level at 30 nmol/kg, sc administered twice daily for 35 days; format: organism-based; details: in vivo, 840 h, time 35 day
Rattus norvegicus [41] = assay: Antidiabetic activity in overnight fasted male Sprague-Dawley rat assessed as reduction in food intake at 300 nmol/kg, ip; format: functional; set-up: scale not given: the % may be the effect or the level left

With `CCCCCCCCCCCCCCCC(=O)N[C@@H](CCC(=O)NCCCC[C@H](NC(=O)[C@H](Cc1ccc(O)cc1)NC(=O)[C@H](CCCCN)NC(=O)[C@H](CO)NC(=O)[C@@H](NC(=O)[C@H](CC(=O)O)NC(=O)[C@H](CC(N)=O)NC(=O)[C@@H](NC(=O)[C@H](Cc1ccc(O)cc1)NC(=O)[C@@H](NC(=O)CNC(=O)[C@H](CCC(N)=O)NC(=O)[C@@H](CO)NC(=O)[C@@H](N)Cc1c[nH]cn1)[C@@H](C)O)[C@@H](C)O)C(C)C)C(=O)N[C@@H](CC(=O)O)C(=O)N[C@@H](CO)C(=O)N[C@@H](CCCNC(=N)N)C(=O)N[C@@H](CCCNC(=N)N)C(=O)N[C@@H](C)C(=O)N[C@@H](CCC(N)=O)C(=O)N[C@@H](CC(=O)O)C(=O)N[C@@H](Cc1ccccc1)C(=O)N[C@H](C(=O)N[C@@H](CCC(=O)O)C(=O)N[C@@H](Cc1c[nH]c2ccccc12)C(=O)N[C@@H](CC(C)C)C(=O)N[C@@H](CCCCN)C(=O)N[C@@H](CC(N)=O)C(=O)NCC(=O)NCC(=O)N1CCC[C@H]1C(=O)N[C@@H](CO)C(=O)N[C@@H](CO)C(=O)NCC(=O)N[C@@H](C)C(=O)N1CCC[C@H]1C(=O)N1CCC[C@H]1C(=O)N1CCC[C@H]1C(=O)N[C@@H](CO)C(N)=O)[C@@H](C)CC)C(=O)O` the Activity (Mus musculus [1]) was “Active”, the Activity (Mus musculus [2]) was “Active” and the Activity (Mus musculus [3]) was “Active”. For the same compound, the Activity [4] was “Non-Toxic”, the Activity (Mus musculus [5]) was “Active” and the Activity (Mus musculus [6]) was “Active”. The Activity [7] was “Non-Toxic”, the Activity (Mus musculus [8]) was “Active” and the Activity (Mus musculus [9]) was “Active”. The Activity [10] was “Non-Toxic”, the MRT [11] was 7.7 h and the Cmax [12] was 1510 ng/mL. For the same compound, the Activity (Mus musculus [13]) was “Active”, the Activity (Mus musculus [14]) was “Active” and the pEC50 (Glucagon receptor) was 10.01. The Activity (Mus musculus [15]) was “Active”, the Activity (Mus musculus [16]) was “Active” and the Activity [17] was “Non-Toxic”. For the same compound, the Activity (Rattus norvegicus [18]) was 29%, the Activity (Mus musculus [19]) was “Active” and the Activity (Mus musculus [20]) was “Active”. The Activity (Mus musculus [21]) was “Active”, the Activity [22] was “Non-Toxic” and the Activity (Mus musculus [23]) was “Active”. The Activity [24] was “Non-Toxic”, the Activity [25] was “Non-Toxic” and the Activity (Mus musculus [26]) was “Active”. The Activity [27] was “Non-Toxic”, the Activity [28] was “Non-Toxic” and the Activity (Mus musculus [29]) was “Active”. For the same compound, the Activity [30] was “Non-Toxic”, the Cmax [31] was 519 ng/mL and the Activity [32] was “Non-Toxic”. The half-life [33] was 2.6 h, the pEC50 [34] was 10.51 and the Activity (Mus musculus [35]) was “Active”. The Activity (Rattus norvegicus [36]) was 25%, the Activity (Mus musculus [37]) was “Active” and the Activity (Mus musculus [38]) was “Active”. For the same compound, the Activity [39] was “Non-Toxic”, the Activity [40] was “Non-Toxic” and the Activity (Rattus norvegicus [41]) was 33%.
